From publication PMC11784096, “Synthesis, antibacterial evaluation and in silico studies of novel 2-(benzo[d]thiazol-2-yl)-N-arylacetamides and their derivatives as potential DHFR inhibitors” (BMC Chemistry, 2025)
Values after ≈ are worked out from the molar mass of the structure shown. Like-named read-outs stand apart in the source and are kept apart here.

Experiments:
DHFR [1] = system: DHFR; parameters: method as in PMID 28789907; settings: read-out: IC50 DHFR inhibition; cited from earlier work
E. coli [2] = assay: Agar diffusion method, inhibition zone diameter; assay type: cell-based, Escherichia coli; settings: Gram-negative
From the text: (§1) The bacterial growth inhibition activity of most of the newly synthesized compounds was examined against different Gram-positive and Gram-negative strains. The Agar diffusion method was used to assess the antibacterial and antifungal activity. The Gram-negative strains were: E. coli, K. pneumonia, P. aeruginosa and A. baumannii, the Gram-positive strains were: St. aureus, St. mutans and the standard antibiotics were gentamicin, tigecycline and ampicillin.
(§2) The agar-based media plate surface was inoculated by spreading a volume of the microbial inoculum over the entire agar surface.
(§3) Using a sterile cork borer or a tip, a hole with a diameter of 6 to 8 mm was made.
(§4) Using a micropipette, (20 µL) volume of the antimicrobial agent or extract solution at the desired concentration was introduced into the well.
(§5) The inoculated plates were incubated under suitable conditions depending upon the tested microorganism. The antimicrobial agent diffused through the agar medium and inhibited the growth of the microbial strain tested.
(§6) After a suitable incubation period (16 to 48 hours) according to the optimum growth conditions, the resulting inhibition zone diameters (in mm) around the wells were measured to the nearest whole millimeter at the point at which there is a prominent reduction in growth. If growth is insufficient at the recommended times, the plates should be re-incubated and read later.

P. aeruginosa [3] = assay: Agar diffusion method, inhibition zone diameter; assay type: cell-based, Pseudomonas aeruginosa; settings: Gram-negative
From the text: as §1, §2, §3, §4, §5, §6

E. coli [4] = assay: Minimum inhibition concentration, serial dilution; assay type: cell-based, Escherichia coli; settings: Escherichia coli, 37 °C
Description: (§7) For each strain, three to five isolated colonies were selected from the fresh agar plate and transferred into a tube containing 3-4 ml of the sterile broth medium. The bacterial suspension was mixed well and incubated at 35-37 °C for 2-6 hours. […] After that, 1 mg of the tested compound (antimicrobial agent) was dissolved in 1 ml of DMSO and a two-fold serial dilution was done using a broth medium. A fixed volume of the prepared bacterial inoculum was added to each tube and incubated at 37 °C for 16-20 hours. The MIC is defined as the lowest concentration of the antimicrobial agent that inhibits visible growth of the tested isolate as observed with the unaided eye.

A. baumannii [5] = assay: Minimum inhibition concentration, serial dilution; assay type: cell-based, Acinetobacter baumannii; settings: Acinetobacter baumannii, 37 °C
Description: as §7

St. aureus [6] = assay: Minimum inhibition concentration, serial dilution; assay type: cell-based; settings: Staphylococcus aureus, 37 °C
Description: as §7

K. pneumonia [7] = assay: Minimum inhibition concentration, serial dilution; assay type: cell-based, Klebsiella pneumonia; settings: Klebsiella pneumoniae, 37 °C
Description: as §7

P. aeruginosa [8] = assay: Minimum inhibition concentration, serial dilution; assay type: cell-based, Pseudomonas aeruginosa; settings: Pseudomonas aeruginosa, 37 °C
Description: as §7

St. aureus [9] = assay: Agar diffusion method, inhibition zone diameter; assay type: cell-based, Staphylococcus aureus; settings: Gram-positive
From the text: as §1, §2, §3, §4, §5, §6

St. mutans [10] = assay: Agar diffusion method, inhibition zone diameter; assay type: cell-based; settings: Gram-positive
From the text: as §1, §2, §3, §4, §5, §6

K. pneumonia [11] = assay: Agar diffusion method, inhibition zone diameter; assay type: cell-based, Klebsiella pneumonia; settings: Gram-negative
From the text: as §1, §2, §3, §4, §5, §6

A. baumannii [12] = assay: Agar diffusion method, inhibition zone diameter; assay type: cell-based, Acinetobacter baumannii; settings: Gram-negative
From the text: as §1, §2, §3, §4, §5, §6

St. mutans [13] = assay: Minimum inhibition concentration, serial dilution; assay type: cell-based; settings: Streptococcus mutans, 37 °C
Description: as §7

[14] = system: St. aureus, B. subtilis, K. pneumonia and E. coli; parameters: method as in doi:10.1007/s12039-020-01844-8; settings: as printed in Fig. 2; cited from earlier work
any bacterial strain = assay: Agar diffusion method, stated for all strains together; assay type: cell-based; settings: in words
From the text: as §1, §2, §3, §4, §5, §6

[15] = system: all tested Gram-negative and Gram-positive strains; assay: Minimum inhibition concentration, stated for all tested strains together; assay type: cell-based
Description: as §7

[16] = target: dihydrofolate reductase in Escherichia coli (Escherichia coli, UniProt P0ABQ4); assay: In vitro DHFR inhibition assessment; assay type: biochemical; settings: for inhibitory activity against DHFR relative to trimethoprim: fold of trimethoprim, in words
[17] = system: E. coli and P. aeruginosa; parameters: method as in earlier work; settings: cited from earlier work
DHFR [18] = system: DHFR; parameters: method as in doi:10.1007/s00706-017-2032-7; settings: read-out: IC50 against DHFR activity; cited from earlier work

Chain of dihydrofolate reductase in Escherichia coli (P0ABQ4 whole entry): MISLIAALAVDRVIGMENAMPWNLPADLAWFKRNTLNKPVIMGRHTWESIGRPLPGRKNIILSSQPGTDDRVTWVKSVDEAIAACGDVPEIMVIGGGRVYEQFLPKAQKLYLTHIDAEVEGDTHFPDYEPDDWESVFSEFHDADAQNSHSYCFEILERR

| SMILES | IZD E. coli (E. coli [2]) [mm] | IZD P. aeruginosa (P. aeruginosa [3]) [mm] | MIC (E. coli [4]) [µg/mL] | MIC (A. baumannii [5]) [µg/mL] | MIC (St. aureus [6]) [µg/mL] | MIC (K. pneumonia [7]) [µg/mL] | MIC (P. aeruginosa [8]) [µg/mL] | IZD St. aureus (St. aureus [9]) [mm] | IZD St. mutans (St. mutans [10]) [mm] | IZD K. pneumonia (K. pneumonia [11]) [mm] | IZD A. baumannii (A. baumannii [12]) [mm] | MIC (St. mutans [13]) [µg/mL] | also measured |
| --- | --- | --- | --- | --- | --- | --- | --- | --- | --- | --- | --- | --- | --- |
| Clc1ccc(/C=N/c2nc3ccccc3s2)cc1 [II] |  |  |  |  |  |  |  |  |  |  |  |  | IC50 (DHFR [1]): 31.2 nM |
| COc1ccc(C=C(C(=O)Nc2ccc(Cl)cc2)c2nc3ccccc3s2)cc1OC [4k, 2-(Benzo[d]thiazol-2-yl)-N-(4-chlorophenyl)-3-(3,4-dimethoxyphenyl)acrylamide] | 22 ± 1.1 | 20 ± 1 | 0.125 (≈ 0.277 µM) | 0.0312 (≈ 0.0693 µM) | 0.0625 (≈ 0.139 µM) | 0.0625 (≈ 0.139 µM) | 0.125 (≈ 0.277 µM) | 25 ± 1.1 | 18 ± 1.1 | 25 ± 1.1 | 23 ± 1.1 |  |  |
| CC1(C)S[C@@H]2[C@H](NC(=O)[C@H](N)c3ccccc3)C(=O)N2[C@H]1C(=O)O [Ampicillin, reference compound] |  |  |  |  | 0.0625 (≈ 0.179 µM) |  |  | 29 ± 0.2 | 22 ± 0.1 |  |  | 0.0625 (≈ 0.179 µM) |  |
| O=C1CSC(c2cccc(Cl)c2Cl)N1c1nc2cc(OC(F)(F)F)ccc2s1 (stereo not shown) [VII] |  |  |  |  |  |  |  |  |  |  |  |  | MIC [14]: 0.10 to 0.25 mg/mL |
| Cc1ccc(NC(=O)Cc2nc3ccccc3s2)cc1 [2b, 2-(Benzo[d]thiazol-2-yl)-N-(p-tolyl)acetamide] |  |  |  |  |  |  |  |  |  |  |  |  | antibacterial activity against any bacterial strain (any bacterial strain): no activity |
| O=[N+]([O-])c1cccc(/C=N/c2nc3ccccc3s2)c1 [I] |  |  |  |  |  |  |  |  |  |  |  |  | IC50 (DHFR [1]): 41.5 nM |
| O=C(Cc1nc2ccccc2s1)Nc1ccc(Cl)cc1 [2c, 2-(Benzo[d]thiazol-2-yl)-N-(4-chlorophenyl)acetamide] | 35 ± 1 | 36 ± 1 | 0.0312 (≈ 0.103 µM) | 0.0312 (≈ 0.103 µM) | 0.0312 (≈ 0.103 µM) | 0.0312 (≈ 0.103 µM) | 0.0312 (≈ 0.103 µM) | 28 ± 1 | 25 ± 1 | 35 ± 1 | 35 ± 1 | 0.0312 (≈ 0.103 µM) | MIC [15]: 0.0312 µg/mL (≈ 0.103 µM); IC50 [16]: 3.8 ± 0.198 µM; inhibitory activity against DHFR relative to trimethoprim [16]: about two-fold |
| Cc1ccc(NC(=O)C(=Cc2ccc(OC(=O)c3ccccc3)cc2)c2nc3ccccc3s2)cc1 [4n, 4-(2-(Benzo[d]thiazol-2-yl)-3-oxo-3-(p-tolylamino)prop-1-en-1-yl)phenylbenzoate] |  |  |  |  |  |  |  |  |  |  |  |  | antibacterial activity against any bacterial strain (any bacterial strain): no antibacterial activity |
| CC(=O)Nc1cc(-c2nc3ccccc3s2)ccc1OCC(=O)N/N=C/c1ccc(O)cc1 [V] |  |  |  |  |  |  |  |  |  |  |  |  | MIC [17]: 200 µg/L (≈ 0.434 µM) |
| O=C(Cc1nc2ccccc2s1)Nc1ccccc1 [2a, 2-(Benzo[d]thiazol-2-yl)-N-phenylacetamide] | 34 ± 0.5 |  | 0.25 (≈ 0.932 µM) | 0.125 (≈ 0.466 µM) | 0.25 (≈ 0.932 µM) | 0.125 (≈ 0.466 µM) |  | 31 ± 1 |  | 34 ± 0.8 |  | 0.0625 (≈ 0.233 µM) |  |
| Cc1ccc(-n2c(N)c(C#N)c(-c3ccccc3)c(-c3nc4ccccc4s3)c2=O)cc1 [11c, 2-Amino-5-(benzo[d]thiazol-2-yl)-6-oxo-4-phenyl-1-(p-tolyl)-1,6-dihydropyridine-3-carbonitrile] | 35 ± 1 | 35 ± 1 | 0.0315 (≈ 0.0725 µM) | 0.0315 (≈ 0.0725 µM) |  | 0.0315 (≈ 0.0725 µM) | 0.0315 (≈ 0.0725 µM) |  |  | 36 ± 1 | 35 ± 1 |  | IC50 [16]: 15 ± 0.785 µM; inhibitory activity against DHFR relative to trimethoprim [16]: half |
| O=C(Nc1ccccc1)C(=Cc1ccc(OC(=O)c2ccccc2)cc1)c1nc2ccccc2s1 [4m, 4-(2-(Benzo[d]thiazol-2-yl)-3-oxo-3-(phenylamino)prop-1-en-1-yl)phenylbenzoate] | 35 ± 1.1 | 30 ± 1 | 0.0312 (≈ 0.0656 µM) | 0.0312 (≈ 0.0656 µM) | 0.0312 (≈ 0.0656 µM) | 0.0312 (≈ 0.0656 µM) | 0.0312 (≈ 0.0656 µM) | 25 ± 1.1 | 28 ± 1.1 | 35 ± 1.1 | 35 ± 1.1 | 0.0312 (≈ 0.0656 µM) | MIC [15]: 0.0312 µg/mL (≈ 0.0656 µM); IC50 [16]: 2.44 ± 0.128 µM; inhibitory activity against DHFR relative to trimethoprim [16]: about four-fold |
| Nc1nc(N)c(-c2nc3ccccc3s2)c(CCCOC(=O)CCl)n1 [IV] |  |  |  |  |  |  |  |  |  |  |  |  | IC50 (DHFR [18]): 1300 nM |
